# Experimental data published in ChEMBL document CHEMBL5576060, “Discovery of acetophenone/piperazin-2-one hybrids as selective anti-TNBC cancer agents by causing DNA damage” (Bioorg Med Chem Lett, 2024).
# Activity calls are given as the source filed them. No cut-off for these calls is given here.
# How the values were obtained:
# [1] = tested on: MDA-MB-468; test: Antiproliferative activity against human MDA-MB-468 cells assessed as inhibition of cell growth at 10 uM incubated for 72 hrs; assay type: functional
# [2] = tested on: MDA-MB-468; test: Antiproliferative activity against human MDA-MB-468 cells assessed as inhibition of cell growth; assay type: functional, cell-based
# [3] = tested on: SK-BR-3; test: Antiproliferative activity against human SK-BR-3 cells assessed as inhibition of cell growth; assay type: functional, cell-based
# [4] = tested on: JIMT-1; test: Antiproliferative activity against human JIMT-1 cells assessed as inhibition of cell growth; assay type: functional, cell-based
# [5] = tested on: BT-474; test: Antiproliferative activity against human BT-474 cells assessed as inhibition of cell growth; assay type: functional, cell-based
# [6] = tested on: MCF7; test: Antiproliferative activity against human MCF7 cells assessed as inhibition of cell growth; assay type: functional, cell-based
# [7] = Antiproliferative activity against human MCF-10A cells assessed as inhibition of cell growth; assay type: toxicity, cell-based
# [8] = Selectivity index, ratio of IC50 for antiproliferative activity against human BT-474 cells assessed as inhibition of cell growth to IC50 for antiproliferative activity against human MDA-MB-468 cells assessed as inhibition of cell growth; assay type: functional
# [9] = tested on: MDA-MB-468; test: Potency index, ratio of cisplatin IC50 to test compound IC50 for antiproliferative activity against human MDA-MB-468 cells assessed as inhibition of cell growth; assay type: functional
# [10] = tested on: MDA-MB-468; test: Induction of DNA damage in human MDA-MB-468 cells assessed as increase in accumulation of gammaH2AX level; assay type: functional, cell-based; conditions: dose <= 20.0 µM
# [11] = tested on: MDA-MB-468; test: Induction of DNA damage in human MDA-MB-468 cells assessed as increase in p53 expression; assay type: functional, cell-based; conditions: dose <= 20.0 µM
# [12] = molecular target: MAP kinase p38 (Homo sapiens) (UniProt O15264+Q15759+Q16539+P53778); test: Inhibition of P38 phosphorylation in human MDA-MB-468 cells upto 20 uM; assay type: cell-based
# [13] = tested on: MDA-MB-468; test: Downregulation of HSP70 expression in human MDA-MB-468 cells upto 20 uM; assay type: functional, cell-based
# [14] = tested on: MDA-MB-468; test: Effect on HSF-1 level in human MDA-MB-468 cells upto 20 uM; assay type: functional, cell-based
# [15] = tested on: MDA-MB-468; test: Effect on HSP90 level in human MDA-MB-468 cells upto 20 uM; assay type: functional, cell-based
# [16] = tested on: SK-BR-3; test: Effect on HSP70 expression in human SK-BR-3 cells at 20 uM measured for 48 hrs by immunoblot analysis; assay type: functional, cell-based
# [17] = tested on: SK-BR-3; test: Effect on P53 expression in human SK-BR-3 cells at 20 uM measured for 48 hrs by immunoblot analysis; assay type: functional, cell-based
# [18] = tested on: SK-BR-3; test: Effect on P38 expression in human SK-BR-3 cells at 20 uM measured for 48 hrs by immunoblot analysis; assay type: functional, cell-based
# [19] = tested on: SK-BR-3; test: Effect on gamma H2AX expression in human SK-BR-3 cells at 20 uM measured for 48 hrs by immunoblot analysis; assay type: functional, cell-based
# [20] = tested on: JIMT-1; test: Effect on HSP70 expression in human JIMT- 1 cells at 20 uM measured for 48 hrs by immunoblot analysis; assay type: functional, cell-based
# [21] = tested on: JIMT-1; test: Effect on P53 expression in human JIMT- 1 cells at 20 uM measured for 48 hrs by immunoblot analysis; assay type: functional, cell-based
# [22] = tested on: JIMT-1; test: Effect on P38 expression in human JIMT- 1 cells at 20 uM measured for 48 hrs by immunoblot analysis; assay type: functional, cell-based
# [23] = tested on: JIMT-1; test: Effect on gammaH2AX expression in human JIMT- 1 cells at 20 uM measured for 48 hrs by immunoblot analysis; assay type: functional, cell-based
# [24] = tested on: BT-474; test: Effect on HSP70 expression in human BT-474 cells at 20 uM measured for 48 hrs by immunoblot analysis; assay type: functional, cell-based
# [25] = tested on: BT-474; test: Effect on P53 expression in human BT-474 cells at 20 uM measured for 48 hrs by immunoblot analysis; assay type: functional, cell-based
# [26] = tested on: BT-474; test: Effect on P38 expression in human BT-474 cells at 20 uM measured for 48 hrs by immunoblot analysis; assay type: functional, cell-based
# [27] = tested on: BT-474; test: Effect on gammaH2AX expression in human BT-474 cells at 20 uM measured for 48 hrs by immunoblot analysis; assay type: functional, cell-based
# [28] = tested on: MCF7; test: Effect on HSP70 expression in human MCF7 cells at 20 uM measured for 48 hrs by immunoblot analysis; assay type: functional, cell-based
# [29] = tested on: MCF7; test: Effect on P53 expression in human MCF7 cells at 20 uM measured for 48 hrs by immunoblot analysis; assay type: functional, cell-based
# [30] = tested on: MCF7; test: Effect on P38 expression in human MCF7 cells at 20 uM measured for 48 hrs by immunoblot analysis; assay type: functional, cell-based
# [31] = tested on: MCF7; test: Effect on gammaH2AX expression in human MCF7 cells at 20 uM measured for 48 hrs by immunoblot analysis; assay type: functional, cell-based
# [32] = tested on: MCF-10A; test: Effect on HSP70 expression in human MCF-10A cells at 20 uM measured for 48 hrs by immunoblot analysis; assay type: functional, cell-based
# [33] = tested on: MCF-10A; test: Effect on P53 expression in human MCF-10A cells at 20 uM measured for 48 hrs by immunoblot analysis; assay type: functional, cell-based
# [34] = tested on: MCF-10A; test: Effect on P38 expression in human MCF-10A cells at 20 uM measured for 48 hrs by immunoblot analysis; assay type: functional, cell-based
# [35] = tested on: MCF-10A; test: Effect on gammaH2AX expression in human MCF-10A cells at 20 uM measured for 48 hrs by immunoblot analysis; assay type: functional, cell-based
# [36] = tested on: MDA-MB-468; test: Induction of cell cycle arrest in human MDA-MB-468 cells assessed as accumulation of cells at G1 phase at 5 uM measured for 48 hrs by PI staining based flow cytometry analysis (reference value: 80.8%); assay type: functional
# [37] = tested on: MDA-MB-468; test: Induction of cell cycle arrest in human MDA-MB-468 cells assessed as accumulation of cells at S phase at 5 uM measured for 48 hrs by PI staining based flow cytometry analysis (reference value: 4.39%); assay type: functional
# [38] = tested on: MDA-MB-468; test: Induction of cell cycle arrest in human MDA-MB-468 cells assessed as accumulation of cells at G2 phase at 5 uM measured for 48 hrs by PI staining based flow cytometry analysis (reference value: 16.4%); assay type: functional
# [39] = tested on: MDA-MB-468; test: Induction of cell cycle arrest in human MDA-MB-468 cells assessed as accumulation of cells at G1 phase at 10 uM measured for 48 hrs by PI staining based flow cytometry analysis (reference value: 80.8%); assay type: functional
# [40] = tested on: MDA-MB-468; test: Induction of cell cycle arrest in human MDA-MB-468 cells assessed as accumulation of cells at S phase at 10 uM measured for 48 hrs by PI staining based flow cytometry analysis (reference value: 4.39%); assay type: functional
# [41] = tested on: MDA-MB-468; test: Induction of cell cycle arrest in human MDA-MB-468 cells assessed as accumulation of cells at G2 phase at 10 uM measured for 48 hrs by PI staining based flow cytometry analysis (reference value: 16.4%); assay type: functional
# [42] = tested on: MDA-MB-468; test: Induction of cell cycle arrest in human MDA-MB-468 cells assessed as accumulation of cells at G1 phase at 20 uM measured for 48 hrs by PI staining based flow cytometry analysis (reference value: 80.8%); assay type: functional
# [43] = tested on: MDA-MB-468; test: Induction of cell cycle arrest in human MDA-MB-468 cells assessed as accumulation of cells at S phase at 20 uM measured for 48 hrs by PI staining based flow cytometry analysis (reference value: 4.39%); assay type: functional
# [44] = tested on: MDA-MB-468; test: Induction of cell cycle arrest in human MDA-MB-468 cells assessed as accumulation of cells at G2 phase at 20 uM measured for 48 hrs by PI staining based flow cytometry analysis (reference value: 16.4%); assay type: functional
compound,measurement,setting,value
O=C1Nc2ccccc2N/C1=C\C(=O)c1ccccc1,inhibition at 10 µM,[1],50%
same,IC50,[2],7.73 µM
same,IC50,[3],> 10 µM
same,IC50,[4],> 10 µM
same,IC50,[5],> 10 µM
same,IC50,[6],> 10 µM
same,IC50,[7],> 10 µM
O=C1Nc2ccccc2N/C1=C\C(=O)c1cccc(OCc2ccccc2)c1,inhibition at 10 µM,[1],50%
same,IC50,[2],6.5 µM
same,IC50,[3],> 60 µM
same,IC50,[4],44.9 µM
same,IC50,[5],28.7 µM
same,IC50,[6],41.6 µM
same,IC50,[7],47.5 µM
same,Ratio IC50,[8],4.4
same,Ratio IC50,[9],2
same,Activity,[10],Dose-Dependent Effect
same,Activity,[11],Dose-Dependent Effect
same,inhibition,[12],Active
same,Activity,[13],Active
same,Activity,[14],inactive
same,Activity,[15],inactive
same,Activity,[16],inactive
same,Activity,[17],inactive
same,Activity,[18],inactive
same,Activity,[19],inactive
same,Activity,[20],inactive
same,Activity,[21],inactive
same,Activity,[22],inactive
same,Activity,[23],inactive
same,Activity,[24],inactive
same,Activity,[25],inactive
same,Activity,[26],inactive
same,Activity,[27],inactive
same,Activity,[28],inactive
same,Activity,[29],inactive
same,Activity,[30],inactive
same,Activity,[31],inactive
same,Activity,[32],inactive
same,Activity,[33],inactive
same,Activity,[34],inactive
same,Activity,[35],inactive
same,Activity,[36],75%
same,Activity,[37],9.32%
same,Activity,[38],17.4%
same,Activity,[39],69.1%
same,Activity,[40],13.3%
same,Activity,[41],19.1%
same,Activity,[42],58.7%
same,Activity,[43],20%
same,Activity,[44],22.8%
